Measurements taken from ChEMBL document CHEMBL1201862, “PubChem BioAssay data set” (2004).
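Step 1: Grow cells in 96-well plates. Step 2: Expose to compound for 48 hours at 5 concentrations. Step 3: Interpolate endpoints linearly; if unreached, use highest concentration. GI50 is the concentration that inhibits growth by half.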 Activity calls are given as the source filed them. Cut-off read from the data, not from the text of the source: active = GI50 up to about 1.1 µM and inactive = higher.

Columns and labels:
Test in all cases: growth of human tumour cells (NCI), 48 h
786-0 = test system: 786-0
SNB-19 = test system: SNB-19
SF-539 = test system: SF-539
SK-MEL-5 = test system: SK-MEL-5
UO-31 = test system: UO-31
HCT-15 = test system: HCT-15
U-251 = test system: U-251
A498 = test system: A498
Hs-578T = test system: Hs-578T
A549 = test system: A549
SK-OV-3 = test system: SK-OV-3
MDA-MB-231 = test system: MDA-MB-231
SW-620 = test system: SW-620
UACC-257 = test system: UACC-257
SF-295 = test system: SF-295
NCI-H522 = test system: NCI-H522
KM12 = test system: KM12
CAKI-1 = test system: CAKI-1
T47D = test system: T47D

Structure (SMILES)	GI50 (786-0)	GI50 (SNB-19)	GI50 (SF-539)	GI50 (SK-MEL-5)	GI50 (UO-31)	GI50 (HCT-15) [µM]	GI50 (U-251)	GI50 (A498)	GI50 (Hs-578T)	GI50 (A549)	GI50 (SK-OV-3)	GI50 (MDA-MB-231)	GI50 (SW-620)	GI50 (UACC-257)	GI50 (SF-295)	GI50 (NCI-H522)	GI50 (KM12)	GI50 (CAKI-1)	GI50 (T47D)
CCCCCCN1CCc2c(C)c(C#N)c3nc4ccccc4n3c21	42.9 µM (inactive)	80.4 µM (inactive)	> 100 µM (inactive)	11.4 µM (inactive)	> 100 µM (inactive)	27.6	12.4 µM (inactive)	76.6 µM (inactive)	8.73 µM (inactive)	50.2 µM (inactive)	> 100 µM (inactive)	5.73 µM (inactive)	23.2 µM (inactive)	16.3 µM (inactive)	> 100 µM (inactive)	31.4 µM (inactive)			
COc1cc2c(c(O)c1O)-c1ccc(OC)c(=O)cc1C(NC(C)=O)CC2 (stereo not drawn)	16.6 µM (inactive)	5.07 µM (inactive)	3.2 µM (inactive)	3.58 µM (inactive)	> 100 µM (inactive)	> 95.1	4.88 µM (inactive)	34.1 µM (inactive)		36.4 µM (inactive)	15 µM (inactive)		5.27 µM (inactive)	30.1 µM (inactive)	12.5 µM (inactive)	2.42 µM (inactive)	3.13 µM (inactive)	78.5 µM (inactive)	
Cc1cc(Cc2c(F)c(F)c(C(c3cc(C)no3)c3c(F)c(F)c(F)c(F)c3F)c(F)c2F)on1 (stereo not drawn)	> 100 µM (inactive)	> 100 µM (inactive)	17.9 µM (inactive)	7.16 µM (inactive)	> 100 µM (inactive)	14.2	18.4 µM (inactive)	> 100 µM (inactive)		> 100 µM (inactive)		> 100 µM (inactive)	8.02 µM (inactive)	5.32 µM (inactive)	5.41 µM (inactive)	23.9 µM (inactive)	19.5 µM (inactive)	> 72.8 µM (inactive)	> 100 µM (inactive)
CN(c1ccccc1Cl)S(=O)(=O)c1ccccc1	> 100 µM (inactive)	> 100 µM (inactive)	> 100 µM (inactive)	34.9 µM (inactive)	52.4 µM (inactive)	> 100	> 100 µM (inactive)		68.5 µM (inactive)	> 100 µM (inactive)	93.1 µM (inactive)	81.5 µM (inactive)	> 100 µM (inactive)	> 100 µM (inactive)	> 100 µM (inactive)	> 100 µM (inactive)	> 100 µM (inactive)	> 100 µM (inactive)	
N#Cc1c2c(c(Nc3cccc(C(F)(F)F)c3)n3c1nc1ccccc13)CCCC2	13.1 µM (inactive)		16.3 µM (inactive)	60.8 µM (inactive)		39.2	11.5 µM (inactive)	26.8 µM (inactive)			17.1 µM (inactive)	17.5 µM (inactive)	39.1 µM (inactive)	22.2 µM (inactive)	21.8 µM (inactive)	1.47 µM (inactive)	81.3 µM (inactive)	22.5 µM (inactive)	> 100 µM (inactive)
NC(=O)CC1OC(=O)Cc2cc3c(c(O)c21)C(=O)c1c(O)cccc1C3=O (stereo not drawn)	> 100 µM (inactive)	> 100 µM (inactive)	92.7 µM (inactive)	67.5 µM (inactive)	32.9 µM (inactive)	71.4	> 100 µM (inactive)	43.9 µM (inactive)		> 100 µM (inactive)	> 100 µM (inactive)	> 100 µM (inactive)	> 100 µM (inactive)	> 100 µM (inactive)	> 100 µM (inactive)	> 100 µM (inactive)		> 100 µM (inactive)	> 100 µM (inactive)
COc1ccc(/C=C2\C(=O)Nc3ccccc32)cc1OC	33.1 µM (inactive)	38.5 µM (inactive)	40.6 µM (inactive)	64.4 µM (inactive)	86.3 µM (inactive)	53	28.9 µM (inactive)	> 100 µM (inactive)		> 100 µM (inactive)	32 µM (inactive)		45.1 µM (inactive)	> 100 µM (inactive)	> 100 µM (inactive)	79.3 µM (inactive)	85.7 µM (inactive)	> 100 µM (inactive)	
O=C(N/C(=C\c1ccc(Cl)cc1)c1nc2ccccc2[nH]1)c1ccccc1	18.9 µM (inactive)	27.2 µM (inactive)	16.7 µM (inactive)	20.1 µM (inactive)	18.8 µM (inactive)	26.4	22.2 µM (inactive)	21.8 µM (inactive)		25.4 µM (inactive)	37.1 µM (inactive)		27.4 µM (inactive)	19.2 µM (inactive)		12.7 µM (inactive)	16.8 µM (inactive)	20.6 µM (inactive)	
N#Cc1c(-c2ccccc2)c(-c2ccccc2)cc2c(=O)c3ccc(Cl)cc3[nH]c12	> 100 µM (inactive)	> 100 µM (inactive)	> 100 µM (inactive)		> 100 µM (inactive)	> 100	> 100 µM (inactive)			> 100 µM (inactive)	> 100 µM (inactive)		> 100 µM (inactive)	> 100 µM (inactive)	> 100 µM (inactive)				
N#Cc1c2ccc([N+](=O)[O-])cc2c(=O)n2c1sc1ccc(C(F)(F)F)cc12	> 100 µM (inactive)	> 100 µM (inactive)	> 100 µM (inactive)	> 100 µM (inactive)	> 100 µM (inactive)	> 100	> 100 µM (inactive)	> 100 µM (inactive)		> 100 µM (inactive)	> 100 µM (inactive)	> 100 µM (inactive)	> 100 µM (inactive)	> 100 µM (inactive)	> 100 µM (inactive)	> 100 µM (inactive)	> 100 µM (inactive)	> 100 µM (inactive)	> 100 µM (inactive)
NC(=O)NC(=O)c1cccc(C(=O)NC(N)=O)n1	> 100 µM (inactive)	> 100 µM (inactive)	> 100 µM (inactive)	> 100 µM (inactive)	> 100 µM (inactive)	> 100	> 100 µM (inactive)	> 100 µM (inactive)		> 100 µM (inactive)	> 100 µM (inactive)	> 100 µM (inactive)	> 100 µM (inactive)	> 100 µM (inactive)	> 100 µM (inactive)	> 100 µM (inactive)	> 100 µM (inactive)	> 100 µM (inactive)	> 100 µM (inactive)
CC(=O)OC1CC2CCN3C(=O)c4cc5c(cc4[C@H](C1OC(C)=O)C23)OCO5 (stereo partly drawn)	> 100 µM (inactive)	> 100 µM (inactive)	> 100 µM (inactive)		> 100 µM (inactive)	> 100	> 100 µM (inactive)			> 100 µM (inactive)	> 100 µM (inactive)		> 100 µM (inactive)	> 100 µM (inactive)	> 100 µM (inactive)	> 100 µM (inactive)	> 100 µM (inactive)		
O=C1CC[C@H](NC(=O)Cc2ccccc2)C(=O)N1 [ANTINEOPLASTON A10]	> 1250 µM (inactive)	> 1250 µM (inactive)	> 1250 µM (inactive)		> 1250 µM (inactive)	> 1250	> 1250 µM (inactive)			> 1250 µM (inactive)	> 1250 µM (inactive)		> 1250 µM (inactive)	> 1250 µM (inactive)	> 1250 µM (inactive)	> 1250 µM (inactive)	> 1250 µM (inactive)	> 1250 µM (inactive)	
